Laboratory results: PMC6835155, “Lessons from LIMK1 enzymology and their impact on inhibitor design” (Biochemical Journal, 2019)
Structures can show the parent of a compound that is named as a salt. Where two headings read alike, the source gives them in different places.

Experiments:
LIMK1KD = molecular target: T1, LIMK1KD (Homo sapiens, UniProt P53667); assay: Differential (dynamic) scanning fluorimetry (DSF) assay, LIMK1KD; type: binding
T1 construct: His6 (N, cleaved yes); made in house; host or cells: baculovirus; Sf9 for virus, TriEx insect cells for expression

LIMK2KD = molecular target: T2, LIMK2KD (Homo sapiens, UniProt P53671); assay: Differential (dynamic) scanning fluorimetry (DSF) assay, LIMK2KD; type: binding
T2 construct: The cDNA coding for LIMK2 residues 330 to 632 was PCR amplified; His6 (N, cleaved yes); made in house; host or cells: baculovirus; Sf9 for virus, TriEx insect cells for expression

[1] = 2 µM LIMK1KD, compound 10 µM, single shot, read-out: TM Shift LIMK1 (K)
[2] = LIMK2KD, compound 10 µM, single shot, read-out: TM Shift LIMK2 (K)
[3] = 2 µM LIMK1KD, compound 10 µM, single shot
[4] = LIMK2KD, compound 10 µM, single shot, 10 µM
[5] = LIMK2KD, compound 10 µM, single shot

T2 sequence (P53671 330-632): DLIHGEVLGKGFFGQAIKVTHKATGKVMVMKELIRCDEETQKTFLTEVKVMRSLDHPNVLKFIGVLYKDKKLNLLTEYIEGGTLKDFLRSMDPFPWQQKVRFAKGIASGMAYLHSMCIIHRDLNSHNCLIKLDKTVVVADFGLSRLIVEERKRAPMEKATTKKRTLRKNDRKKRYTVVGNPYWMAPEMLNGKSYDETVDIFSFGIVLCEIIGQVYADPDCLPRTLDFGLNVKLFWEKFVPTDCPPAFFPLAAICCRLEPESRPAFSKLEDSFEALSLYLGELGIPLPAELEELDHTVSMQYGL
T1 sequence (P53667 330-637): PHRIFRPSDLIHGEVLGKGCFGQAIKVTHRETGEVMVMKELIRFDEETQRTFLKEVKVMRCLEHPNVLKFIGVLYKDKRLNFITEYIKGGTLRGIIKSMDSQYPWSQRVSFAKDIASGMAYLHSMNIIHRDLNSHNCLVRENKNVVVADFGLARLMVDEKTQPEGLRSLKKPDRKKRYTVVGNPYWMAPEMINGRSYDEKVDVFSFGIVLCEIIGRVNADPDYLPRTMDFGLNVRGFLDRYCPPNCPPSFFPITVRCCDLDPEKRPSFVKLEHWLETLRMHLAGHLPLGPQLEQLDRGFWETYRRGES

SMILES | ΔTm at 10 µM (LIMK1KD; [1]) | ΔTm at 10 µM (LIMK2KD; [2]) | further results
Cn1cc(C2=C(c3cn(C4CCN(Cc5ccccn5)CC4)c4ccccc34)C(=O)NC2=O)c2ccccc21 [Enzastaurin (LY317615), Enzastaurin] | 1 °C | 1.6 °C | –
C#Cc1cccc(Nc2ncnc3cc(OCCOC)c(OCCOC)cc23)c1 [Erlotinib HCl (OSI-744), Erlotinib HCl] | 0.1 °C | 0.5 °C | –
CO[C@H]1C[C@@H]2CC[C@@H](C)[C@@](O)(O2)C(=O)C(=O)N2CCCC[C@H]2C(=O)O[C@H]([C@H](C)C[C@@H]2CC[C@@H](OCCO)[C@H](OC)C2)CC(=O)[C@H](C)/C=C(\C)[C@@H](O)[C@@H](OC)C(=O)[C@H](C)C[C@H](C)/C=C/C=C/C=C/1C [Everolimus (RAD001), Everolimus] | 0.1 °C | -0.9 °C | –
O=S(=O)(c1cccc2cnccc12)N1CCCNCC1 [Fasudil (HA-1077) HCl, Fasudil] | 0.8 °C | 0.9 °C | –
Cc1cnc(Nc2ccc(OCCN3CCCC3)cc2)nc1Nc1cccc(S(=O)(=O)NC(C)(C)C)c1 [Fedratinib] | 3.2 °C | 1.4 °C | –
CCCCCCCCc1ccc(CCC(N)(CO)CO)cc1 [Fingolimod (FTY720) HCl, Fingolimod] | – | – | ΔTm at 10 µM (LIMK1KD; read-out: TM Shift LIMK1 (K), 2 µM LIMK1KD, compound 10 µM, single shot): -0.7 °C; ΔTm at 10 µM (LIMK2KD; read-out: TM Shift LIMK2 (K), LIMK2KD, compound 10 µM, single shot): 1.1 °C
COc1cc2c(Oc3ccc(NC(=O)C4(C(=O)Nc5ccc(F)cc5)CC4)cc3F)ccnc2cc1OCCCN1CCOCC1 [Foretinib (GSK1363089), Foretinib] | 1.9 °C | -0.4 °C | –
COc1cc(Nc2ncc(F)c(Nc3ccc4c(n3)N(COP(=O)(O)O)C(=O)C(C)(C)O4)n2)cc(OC)c1OC [Fostamatinib (R788), Fostamatinib] | 1 °C | 0.5 °C | –
CC(C)NC[C@@H](C(=O)N1CCN(c2ncnc3c2[C@H](C)C[C@H]3O)CC1)c1ccc(Cl)cc1 [GDC-0068] | – | – | TM Shift LIMK1 (K) (LIMK1KD; [3]): -0.4 K; TM Shift LIMK2 (K) (LIMK2KD; [4]): -0.4 K
CS(=O)(=O)N1CCN(Cc2cc3nc(-c4cccc5[nH]ncc45)nc(N4CCOCC4)c3s2)CC1 [GDC-0941] | – | – | TM Shift LIMK1 (K) (LIMK1KD; [3]): -0.3 K; TM Shift LIMK2 (K) (LIMK2KD; [4]): -0.4 K
Cc1c(CN2CCN(C(=O)[C@H](C)O)CC2)sc2c(N3CCOCC3)nc(-c3cnc(N)nc3)nc12 [GDC-0980 (RG7422)] | – | – | TM Shift LIMK1 (K) (LIMK1KD; [3]): 1.4 K; TM Shift LIMK2 (K) (LIMK2KD; [5]): 0.6 K
NC(=O)c1cccc(-c2cc(Nc3ccc(OC(F)(F)F)cc3)ncn2)c1 [GNF-2] | – | – | TM Shift LIMK1 (K) (LIMK1KD; [3]): -1.0 K; TM Shift LIMK2 (K) (LIMK2KD; [5]): 0.9 K
CCn1c(-c2nonc2N)nc2cnc(Oc3cccc(NC(=O)c4ccc(OCCN5CCOCC5)cc4)c3)cc21 [GSK269962] | – | – | TM Shift LIMK1 (K) (LIMK1KD; [3]): 1.0 K; TM Shift LIMK2 (K) (LIMK2KD; [5]): 0.1 K
CC1=C(C(=O)Nc2cc3cn[nH]c3cc2F)C(c2ccc(C(F)(F)F)cc2)CC(=O)N1 (centres unmarked) [GSK429286A] | 0.5 °C | 1.4 °C | –
CNC(=O)c1c(F)cccc1Nc1nc(Nc2cc3c(cc2OC)CCN3C(=O)CN(C)C)nc2[nH]ccc12 [GSK1838705A] | – | – | TM Shift LIMK1 (K) (LIMK1KD; [3]): 0.4 K; TM Shift LIMK2 (K) (LIMK2KD; [5]): 1.0 K

More lines, main results first:

ΔTm at 10 µM (LIMK1KD; [1]) | ΔTm at 10 µM (LIMK2KD; [2]) | SMILES | further results
-0.5 °C | -1.3 °C | CCNC(=O)Nc1ccc(-c2nc3c(c(N4CCOC[C@@H]4C)n2)CCN(C2COC2)C3)cc1 [GDC-0349] | –
-0.7 °C | 0 °C | OCCn1cc(-c2ccc3c(c2)CC/C3=N\O)c(-c2ccncc2)n1 [GDC-0879] | –
1.1 °C | 0.8 °C | C[C@@H](Oc1cc(-n2cnc3ccc(CN4CCN(C)CC4)cc32)sc1C(N)=O)c1ccccc1C(F)(F)F [GSK461364] | –
1.4 °C | -0.2 °C | O=C(O)c1ccc(-c2c[nH]c3ncc(-c4ccccc4)cc23)cc1C1CCCC1 [GSK650394] | –
-0.1 °C | 0 °C | CCn1c(-c2nonc2N)nc2c(C#CC(C)(C)O)ncc(OC[C@H]3CCCNC3)c21 [GSK690693] | –
1.2 °C | 2.6 °C | O=C1NC(=O)/C(=C/c2ccc3nccc(-c4ccncc4)c3c2)S1 [GSK1059615] | –
1.3 °C | -0.1 °C | CCn1cc(-c2ccnc3[nH]c(-c4cccc(CN(C)C)c4)cc23)c(-c2ccc(NC(=O)N(C)C)cc2)n1 [GSK1070916] | –
